Measurements taken from article PMC10465592, “Reduced ADP off-rate by the yeast CCT2 double mutation T394P/R510H which causes Leber congenital amaurosis in humans” (Communications Biology, 2023).

Experiments:
[1] = target: T1, CCT/TRiC (Saccharomyces cerevisiae); test: stopped-flow transient kinetics of phosphate release (labelled phosphate-binding protein), burst-phase rates fit to simple binding; type: biochemical; settings: 25 °C, pH 7.5 Tris-HCl, 10 mM MgCl2, 50 mM KCl, 20% glycerol, 1 mM DTT; both burst phases similar; read-out: ATP affinity (Kd)
T1 construct: gene CCT2; native complex from yeast cells, two back-to-back rings each of eight distinct subunits CCT1-CCT8; CCT2 mutations introduced in the chromosomal gene
Excerpt: stopped-flow transient kinetics of phosphate release (labelled phosphate-binding protein), burst-phase rates fit to simple binding on CCT/TRiC (Saccharomyces cerevisiae) | the ATP affinities corresponding to the two burst phases are similar and found to be

[2] = target: T1, CCT/TRiC (Saccharomyces cerevisiae); test: stopped-flow transient kinetics of phosphate release (labelled phosphate-binding protein), burst-phase rates fit to conformational selection; type: biochemical; settings: 25 °C, pH 7.5 Tris-HCl, 10 mM MgCl2, 50 mM KCl, 20% glycerol, 1 mM DTT; stronger of two burst phases; read-out: ATP affinity (Kd)

Kd [1]: ~7 µM
Kd [2]: ~27 µM
SMILES: Nc1ncnc2c1ncn2[C@@H]1O[C@H](COP(=O)(O)OP(=O)(O)OP(=O)(O)O)[C@@H](O)[C@H]1O [ATP]
